Experimental data from US20240376097A1, “BCL-2 Inhibitor” (BeiGene Ltd., priority 2020, published 2024).

Tests used:
[1] = tested on: RS4;11 (BCL-2 dependent acute lymphoblastic leukemia cell line); assay: RS4;11 Cell Proliferation Assay; format: cell-based; conditions: Homo sapiens, RS4-11, RS4;11 cells, read-out: Cellular proliferation assay (IC50, nM) RS4
Method in brief: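 RS4;11 cells, 50,000 per well in RPMI-1640 with 10% FBS, treated 48 h at 37 °C with a 10-point dilution series topping at 1 μM. Viability read by CellTiter-Glo ATP luminescence; mean IC50 reported.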

[2] = tested on: BCL-2 G101V knock-in cell line H96 (derive from RS4;11); assay: Bcl 2-G101V Knock-In RS4;11 Cell Proliferation Assay; format: cell-based; conditions: Homo sapiens, RS4;11 Bcl-2 G101V knock-in clone H96, 48 hrs, CellTiter-GLO, read-out: Cellular proliferation assay (IC50, nM) RS4
Method in brief: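 H96, a CRISPR-generated RS4;11 clone carrying BCL2-G101V knock-in (WES/RNA-seq validated), seeded 50,000 per well and exposed 48 h at 37 °C to 10-point dilutions topping at 1 or 10 μM. Viability by CellTiter-Glo luminescence; mean IC50.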

[3] = target: Recombinant human Bcl-2 protein (Homo sapiens (Human), UniProt P10415); assay: Bcl-2 TR-FRET Assay; format: binding; conditions: Bcl-2 wild type, TR-FRET; read-out: Biochemical assay (IC50, nM) Bcl-2 WT
Method in brief: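 Compounds were pre-incubated with 0.05 nM recombinant Bcl-2 for 0.5 h at room temperature in potassium phosphate buffer, pH 7.5. FITC-Bak peptide (0.5 nM) and Tb-cryptate antibody were then added for 1 h. Percent inhibition from TR-FRET signals gave IC50 values.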

[4] = target: recombinant human Bcl-2-G101V protein (Homo sapiens (Human), UniProt P10415, G101V); assay: Bcl-2-G101V TR-FRET Assay; format: binding; conditions: Bcl-2 G101V mutant, TR-FRET; read-out: Biochemical assay (IC50, nM) Bcl-2 G101V
Method in brief: (§1)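 Percent inhibition of the Bcl-2-G101V–ligand interaction was computed from the 490 nm to 520 nm emission ratio after 337 nm excitation, over increasing compound concentrations; a four-parameter logistic fit gave IC50.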

[5] = tested on: recombinant human Bcl-2-G101V protein; assay: Bcl-2-G101V TR-FRET Assay; format: binding; conditions: ratio of biochemical IC50 Bcl-2 G101V / Bcl-2 WT
Method in brief: as §1

SMILES: COc1cc(CN2CCN(C3CC4(C3)CN(c3ccc(C(=O)NS(=O)(=O)c5ccc(NC[C@H]6CC[C@](C)(O)CC6)c([N+](=O)[O-])c5)c(Oc5cnc6[nH]cc(F)c6c5)c3)C4)[C@H](c3ccccc3C(C)C)C2)ccc1C(C)C [Example 269, 2-((3-fluoro-1H-pyrrolo[2,3-b]pyridin-5-yl)oxy)-N-((4-((((1r,4r)-4-hydroxy-4-methylcyclohexyl)methyl)amino)-3-nitrophenyl)sulfonyl)-4-(6-((R)-4-(4-isopropyl-3-methoxybenzyl)-2-(2-isopropylphenyl)piperazin-1-yl)-2-azaspiro[3.3]heptan-2-yl) benzamide]
- IC50 [1]: 0.17 nM
- IC50 [2]: 0.41 nM
- IC50 [3]: 2.1 nM
- IC50 [4]: 4.9 nM
- Ratio of Bcl-2 G101V/WT [5]: 2.4

SMILES: COc1cc(CN2CCN(C3CC4(C3)CN(c3ccc(C(=O)NS(=O)(=O)c5ccc(NC[C@H]6CC[C@](C)(O)CC6)c([N+](=O)[O-])c5)c(Oc5cnc6[nH]ccc6c5)c3)C4)[C@H](c3ccccc3C(C)C)C2)ccc1C(C)C [Example 270, 2-((1H-pyrrolo[2,3-b]pyridin-5-yl)oxy)-N-((4-((((1r,4r)-4-hydroxy-4-methylcyclohexyl)methyl)amino)-3-nitrophenyl)sulfonyl)-4-(6-((R)-4-(4-isopropyl-3-methoxybenzyl)-2-(2-isopropylphenyl)piperazin-1-yl)-2-azaspiro[3.3]heptan-2-yl) benzamide]
- IC50 [1]: 0.16 nM
- IC50 [2]: 0.64 nM
- IC50 [3]: 1.1 nM
- IC50 [4]: 2.9 nM
- Ratio of Bcl-2 G101V/WT [5]: 2.6

SMILES: CCc1ccc(CN2CCN(C3CC4(C3)CN(c3ccc(C(=O)NS(=O)(=O)c5ccc(NC[C@H]6CC[C@](C)(O)CC6)c([N+](=O)[O-])c5)c(Oc5cnc6[nH]ccc6c5)c3)C4)[C@H](c3ccccc3C(C)C)C2)cc1OC [Example 271, 2-((1H-pyrrolo[2,3-b]pyridin-5-yl)oxy)-4-(6-((R)-4-(4-ethyl-3-methoxybenzyl)-2-(2-isopropylphenyl)piperazin-1-yl)-2-azaspiro[3.3]heptan-2-yl)-N-((4-((((1r,4r)-4-hydroxy-4-methylcyclohexyl)methyl)amino)-3-nitrophenyl)sulfonyl)benzamide]
- IC50 [1]: 0.11 nM
- IC50 [2]: 0.4 nM
- IC50 [3]: 0.47 nM
- IC50 [4]: 1.5 nM
- Ratio of Bcl-2 G101V/WT [5]: 3.1

SMILES: COc1cc(CN2CCN(C3CC4(CCN(c5ccc(C(=O)NS(=O)(=O)c6ccc(NC[C@H]7CC[C@](C)(O)CC7)c([N+](=O)[O-])c6)c(Oc6cnc7[nH]ccc7c6)c5)CC4)C3)[C@H](c3ccccc3C(C)C)C2)ccc1C(F)(F)F [Example 277, 2-((1H-pyrrolo[2,3-b]pyridin-5-yl)oxy)-N-((4-((((1r,4r)-4-hydroxy-4-methylcyclohexyl)methyl)amino)-3-nitrophenyl)sulfonyl)-4-(2-((R)-2-(2-isopropylphenyl)-4-(3-methoxy-4-(trifluoromethyl)benzyl)piperazin-1-yl)-7azaspiro [3.5]nonan-7-yl)benzamide]
- IC50 [1]: 0.22 nM
- IC50 [2]: 1.9 nM
- IC50 [3]: 1.4 nM
- IC50 [4]: 3.2 nM
- Ratio of Bcl-2 G101V/WT [5]: 2.2

SMILES: COc1cc(CN2CCN(C3CC4(CCN(c5ccc(C(=O)NS(=O)(=O)c6ccc(NC[C@H]7CC[C@](C)(O)CC7)c([N+](=O)[O-])c6)c(Oc6cnc7[nH]cc(F)c7c6)c5)CC4)C3)[C@H](c3ccccc3C(C)C)C2)ccc1C(F)F [Example 287]
- IC50 [1]: 0.16 nM
- IC50 [2]: 0.55 nM
- IC50 [3]: 0.87 nM
- IC50 [4]: 2.3 nM
- Ratio of Bcl-2 G101V/WT [5]: 2.6

SMILES: COc1cc(CN2CCN(C3CC4(C3)CN(c3ccc(C(=O)NS(=O)(=O)c5ccc(NC[C@H]6CC[C@](C)(O)CC6)c([N+](=O)[O-])c5)c(Oc5cnc6[nH]ccc6c5)c3)C4)[C@H](c3ccccc3C(C)C)C2)ccc1C(F)(F)F [Example 290, 2-((1H-pyrrolo[2,3-b]pyridin-5-yl)oxy)-N-((4-((((1r,4r)-4-hydroxy-4-methylcyclohexyl)methyl)amino)-3-nitrophenyl)sulfonyl)-4-(6-((R)-2-(2-isopropylphenyl)-4-(3-methoxy-4-(trifluoromethyl)benzyl)piperazin-1-yl)-2-azaspiro [3.3]heptan-2-yl)benzamide]
- IC50 [1]: 0.2 nM
- IC50 [2]: 1.5 nM
- IC50 [3]: 0.9 nM
- IC50 [4]: 2.2 nM
- Ratio of Bcl-2 G101V/WT [5]: 2.5

SMILES: CC(C)c1ccccc1[C@@H]1CN(Cc2ccc3c(c2)OCC3)CCN1C1CC2(C1)CN(c1ccc(C(=O)NS(=O)(=O)c3ccc(NC[C@H]4CC[C@](C)(O)CC4)c([N+](=O)[O-])c3)c(Oc3cnc4[nH]cc(F)c4c3)c1)C2 [Example 297, 4-(6-((R)-4-((2,3-dihydrobenzofuran-6-yl)methyl)-2-(2-isopropylphenyl)piperazin-1-yl)-2-azaspiro[3.3]heptan-2-yl)-2-((3-fluoro-1H-pyrrolo[2,3-b]pyridin-5-yl)oxy)-N-((4-((((1r,4r)-4-hydroxy-4-methylcyclohexyl)methyl)amino)-3-nitrophenyl)sulfonyl)benzamide]
- IC50 [1]: 0.25 nM
- IC50 [2]: 1.16 nM
- IC50 [3]: 0.13 nM
- IC50 [4]: 0.4 nM
- Ratio of Bcl-2 G101V/WT [5]: 3.0

SMILES: CC(C)c1ccccc1[C@@H]1CN(Cc2ccc3c(c2)OCC3)CCN1C1CC2(C1)CN(c1ccc(C(=O)NS(=O)(=O)c3ccc(NC[C@H]4CC[C@](C)(O)CC4)c([N+](=O)[O-])c3)c(Oc3cnc4[nH]ccc4c3)c1)C2 [Example 298, 2-((1H-pyrrolo[2,3-b]pyridin-5-yl)oxy)-4-(6-((R)-4-((2,3-dihydrobenzofuran-6-yl)methyl)-2-(2-isopropylphenyl)piperazin-1-yl)-2-azaspiro[3.3]heptan-2-yl)-N-((4-((((1r,4r)-4-hydroxy-4-methylcyclohexyl)methyl)amino)-3-nitrophenyl)sulfonyl)benzamide]
- IC50 [1]: 0.24 nM
- IC50 [2]: 1.82 nM
- IC50 [3]: 0.099 nM
- IC50 [4]: 0.45 nM
- Ratio of Bcl-2 G101V/WT [5]: 4.6

SMILES: CC(C)c1ccccc1[C@@H]1CN(Cc2ccc3c(c2)OCC3)CCN1C1CC2(CCN(c3ccc(C(=O)NS(=O)(=O)c4ccc(NC[C@H]5CC[C@](C)(O)CC5)c([N+](=O)[O-])c4)c(Oc4cnc5[nH]cc(F)c5c4)c3)CC2)C1 [Example 305, 4-(2-((R)-4-((2,3-dihydrobenzofuran-6-yl)methyl)-2-(2-isopropylphenyl)piperazin-1-yl)-7-azaspiro[3.5]nonan-7-yl)-2-((3-fluoro-1H-pyrrolo[2,3-b]pyridin-5-yl)oxy)-N-((4-((((1r,4r)-4-hydroxy-4-methylcyclohexyl)methyl)amino)-3-nitrophenyl)sulfonyl) benzamide]
- IC50 [1]: 0.32 nM
- IC50 [2]: 1.3 nM
- IC50 [3]: 0.19 nM
- IC50 [4]: 0.6 nM
- Ratio of Bcl-2 G101V/WT [5]: 3.2

SMILES: CC(C)c1ccccc1[C@@H]1CN(Cc2ccc3c(c2)OCC3(C)C)CCN1C1CC2(CCN(c3ccc(C(=O)NS(=O)(=O)c4ccc(NC[C@H]5CC[C@](C)(O)CC5)c([N+](=O)[O-])c4)c(Oc4cnc5[nH]cc(F)c5c4)c3)CC2)C1 [Example 308, 4-(2-((R)-4-((3,3-dimethyl-2,3-dihydrobenzofuran-6-yl)methyl)-2-(2-isopropylphenyl)piperazin-1-yl)-7-azaspiro[3.5]nonan-7-yl)-2-((3-fluoro-1H-pyrrolo[2,3-b]pyridin-5-yl)oxy)-N-((4-((((1r,4r)-4-hydroxy-4-methylcyclohexyl)methyl)amino)-3-nitrophenyl)sulfonyl)benzamide]
- IC50 [1]: 0.58 nM
- IC50 [2]: 3.95 nM
- IC50 [3]: 0.67 nM
- IC50 [4]: 3.11 nM
- Ratio of Bcl-2 G101V/WT [5]: 4.6

SMILES: CC(C)c1ccccc1[C@@H]1CN(Cc2ccc3c(c2)OCC3(C)C)CCN1C1CC2(C1)CN(c1ccc(C(=O)NS(=O)(=O)c3ccc(NC[C@H]4CC[C@](C)(O)CC4)c([N+](=O)[O-])c3)c(Oc3cnc4[nH]cc(F)c4c3)c1)C2 [Example 311, 4-(6-((R)-4-((3,3-dimethyl-2,3-dihydrobenzofuran-6-yl)methyl)-2-(2-isopropylphenyl)piperazin-1-yl)-2-azaspiro[3.3]heptan-2-yl)-2-((3-fluoro-1H-pyrrolo[2,3-b]pyridin-5-yl)oxy)-N-((4-((((1r,4r)-4-hydroxy-4-methylcyclohexyl)methyl)amino)-3-nitrophenyl)sulfonyl)benzamide]
- IC50 [1]: 0.42 nM
- IC50 [2]: 2.3 nM
- IC50 [3]: 0.43 nM
- IC50 [4]: 1.5 nM
- Ratio of Bcl-2 G101V/WT [5]: 3.4
